Among the data in the OPERA property sets (Mansouri et al. 2018) are solubility values, retold here.

What is called solubility is how much of the substance goes into solution per volume. High values mean much dissolved substance, low ones little dissolved substance.

≈ marks a conversion by molar mass, not a printed value.

Conditions in one data set: not given
As for `COCCNC(=O)CSP(=S)(OC)OC`, the solubility is 73200 µM (≈ 20000 µg/mL).

In turn, `O=C(NN=C1C=CC(=NO)C=C1)c1ccccc1` gave a solubility of 20.7 µM (≈ 5 µg/mL).

Take `CCCN(CCC)c1c([N+](=O)[O-])cc(C)cc1[N+](=O)[O-]`: the solubility came to 1080 µM (≈ 304 µg/mL). This solubility lies about 52-fold higher than the previous one.

For `CCOP(=O)(OCC)Oc1cc(C)[nH]n1`, the solubility was 4270 µM (≈ 1000 µg/mL).

`O=c1[nH]cc(Br)c(=O)[nH]1`: the solubility came to 4270 µM (≈ 815 µg/mL). This lies in the millimolar range.

With `C=C(C)C(=O)Nc1ccc(Cl)c(Cl)c1`, the solubility stood at 36.9 µM (≈ 8.5 µg/mL).

The data set is the same for the next values; noted with them: 20 °C.
Compound `c1cc[n+]2c(c1)-c1cccc[n+]1CC2` came in with a solubility of 376 µM.

The data set is the same for the next values; noted with them: 21 °C.
As to `CNc1nc(NC(C)C)nc(OC)n1`, the solubility came out at 17700 µM (≈ 3500 µg/mL).

Still in this data set, the particulars now being: 25 °C.
For the compound `CC(Cl)=CCl`, the solubility came to 24300 µM (≈ 2700 µg/mL).

Consider `CCOP(=O)(OC=CCl)OCC`, for which the solubility was 46600 µM (≈ 10000 µg/mL).

Regarding `Cc1nn(-c2ccccc2)c(C)c1N=O`, the solubility was determined as 184 µM (≈ 37 µg/mL).

Regarding `C/C=C(/C)C(=O)O[C@H]1CC[C@@]2(C)[C@@H]3CC[C@H]4[C@]5(O)C[C@H](O)[C@@]6(O)[C@@H](CN7C[C@@H](C)CC[C@H]7[C@@]6(C)O)[C@]5(O)C[C@@]42O[C@]13O`, the solubility was determined as 963 µM (≈ 570 µg/mL).
